{
  "source": "patent US10051857B2",
  "about": "“Formulation component” (SYNGENTA LIMITED, priority 2011, dated 2018)",
  "assay_type_in_all_cases": "in vivo",
  "key": {"[1]": {"test_system": "Abutilon theophrasti (ABUTH)", "experiment": "Glasshouse adjuvant test with nicosulfuron (Example 2)", "details": "nicosulfuron 30 or 60 g/ha, adjuvant 0.2% v/v, 200 l/ha; leaf area killed; mean over two rates, three replicates, 7, 14 and 21 days", "protocol": "(§1) Compound No. 2 (see Example 1 and Table 1 above) was tested in a glasshouse against four weed species in combination with the herbicide nicosulfuron. An agrochemical composition was prepared containing 0.2% v/v of the adjuvant in a track sprayer and was applied at a volume of 200 liters per hectare. Nicosulfuron was applied at either 30 or 60 grams of pesticide per hectare on weeds which had been grown to the 1.3 or 1.4 leaf stage. The weed species were Chenopodium album (CHEAL), Abutilon theophrasti (ABUTH), […] (BRAPP), and Digitaria sanguinalis (DIGSA).\n(§2) Each spray test was replicated three times. The efficacy of the herbicide was assessed visually and expressed as a percentage of the leaf area killed. Samples were assessed at time periods of 7, 14 and 21 days. following application. The results shown in Table 2 below are mean averages over the two rates of nicosulfuron, three replicates and the three assessment timings."}, "[2]": {"test_system": "Chenopodium album (CHEAL)", "experiment": "Glasshouse adjuvant test with nicosulfuron (Example 2)", "details": "nicosulfuron 30 or 60 g/ha, adjuvant 0.2% v/v, 200 l/ha; leaf area killed; mean over two rates, three replicates, 7, 14 and 21 days", "protocol": "as §1, §2"}, "[3]": {"test_system": "Digitaria sanguinalis (DIGSA)", "experiment": "Glasshouse adjuvant test with nicosulfuron (Example 2)", "details": "nicosulfuron 30 or 60 g/ha, adjuvant 0.2% v/v, 200 l/ha; leaf area killed; mean over two rates, three replicates, 7, 14 and 21 days", "protocol": "as §1, §2"}, "Brassica perenni (BRAPP)": {"test_system": "Brassica perenni (BRAPP)", "experiment": "Glasshouse adjuvant test with nicosulfuron (Example 2)", "details": "nicosulfuron 30 or 60 g/ha, adjuvant 0.2% v/v, 200 l/ha; leaf area killed; mean over two rates, three replicates, 7, 14 and 21 days", "protocol": "as §1, §2"}, "[4]": {"test_system": "Xanthium strumarium (XANST)", "experiment": "Glasshouse adjuvant test with fomesafen (Example 3)", "details": "fomesafen 60 or 120 g/ha, adjuvant 0.2% v/v or none, 200 l/ha; leaf area killed; mean over two rates, six replicates, 7 and 14 days", "protocol": "(§3) Compound No. 2 was tested in a glasshouse against four weed species in combination with the herbicide fomesafen. An agrochemical composition was prepared containing 0.2% v/v of the adjuvant in a track sprayer and was applied at a volume of 200 liters per hectare. Fomesafen was applied at either 60 or 120 grams of pesticide per hectare on weeds which had been grown to the 1.3 or 1.4 leaf stage. The weed species were Chenopodium album (CHEAL), Abutilon theophrasti (ABUTH), Setaria viridis (SETVI), and Xanthium strumarium (XANST).\n(§4) Each spray test was replicated six times. The efficacy of the herbicide was assessed visually and expressed as a percentage of the leaf area killed. Samples were assessed at time periods of 7 and 14 days following application. The results shown in Table 3 below are mean averages over the two rates of fomesafen, six replicates and the two assessment timings, and are compared to the efficacy of fomesafen in the absence of adjuvant."}, "[5]": {"test_system": "Abutilon theophrasti (ABUTH)", "experiment": "Glasshouse adjuvant test with fomesafen (Example 3)", "details": "fomesafen 60 or 120 g/ha, adjuvant 0.2% v/v or none, 200 l/ha; leaf area killed; mean over two rates, six replicates, 7 and 14 days", "protocol": "as §3, §4"}, "Setaria viridis (SETVI)": {"test_system": "Setaria viridis (SETVI)", "experiment": "Glasshouse adjuvant test with fomesafen (Example 3)", "details": "fomesafen 60 or 120 g/ha, adjuvant 0.2% v/v or none, 200 l/ha; leaf area killed; mean over two rates, six replicates, 7 and 14 days", "protocol": "as §3, §4"}, "[6]": {"test_system": "Chenopodium album (CHEAL)", "experiment": "Glasshouse adjuvant test with fomesafen (Example 3)", "details": "fomesafen 60 or 120 g/ha, adjuvant 0.2% v/v or none, 200 l/ha; leaf area killed; mean over two rates, six replicates, 7 and 14 days", "protocol": "as §3, §4"}, "[7]": {"test_system": "four weed species (CHEAL, ABUTH, BRAPP, DIGSA)", "experiment": "Glasshouse adjuvant test with nicosulfuron (Example 2), mean of species", "protocol": "as §1, §2"}, "[8]": {"test_system": "four weed species (ABUTH, CHEAL, SETVI, XANST)", "experiment": "Glasshouse adjuvant test with fomesafen (Example 3), mean across species", "details": "fomesafen 60 or 120 g/ha, adjuvant 0.2% v/v or none", "protocol": "as §3, §4"}, "[9]": {"test_system": "Abutilon theophrasti (ABUTH)", "experiment": "Glasshouse adjuvant test with mesotrione (Example 4)", "details": "mesotrione 60 or 120 g/ha, adjuvant 0.2% v/v, 200 l/ha; leaf area killed; mean over two rates, six replicates, 6, 14 and 21 days", "protocol": "(§5) Compound No. 2 was tested in a glasshouse against four weed species in combination with the herbicide mesotrione. An agrochemical composition was prepared containing 0.2% v/v of the adjuvant in a track sprayer and was applied at a volume of 200 liters per hectare. Mesotrione was applied at either 60 or 120 grams of pesticide per hectare on weeds which had been grown to the 1.3 or 1.4 leaf stage. The weed species were Amaranthus retroflexus (AMARE), Abutilon theophrasti (ABUTH), Brachiaria platyphylla (BRAPP), and Digitaria sanguinalis (DIGSA).\n(§6) Each spray test was replicated six times. The efficacy of the herbicide was assessed visually and expressed as a percentage of the leaf area killed. Samples were assessed at time periods of 6, 14 and 21 days following application. The results shown in Table 4 below are mean averages over the two rates of mesotrione, six replicates and the three assessment timings. The results are compared to those obtained for mesotrione in combination with the commercially available tank mix adjuvant Turbocharge® D (Syngenta Crop Protection Canada, Inc.)."}, "[10]": {"test_system": "Amaranthus retroflexus (AMARE)", "experiment": "Glasshouse adjuvant test with mesotrione (Example 4)", "details": "mesotrione 60 or 120 g/ha, adjuvant 0.2% v/v, 200 l/ha; leaf area killed; mean over two rates, six replicates, 6, 14 and 21 days", "protocol": "as §5, §6"}, "[11]": {"test_system": "Digitaria sanguinalis (DIGSA)", "experiment": "Glasshouse adjuvant test with mesotrione (Example 4)", "details": "mesotrione 60 or 120 g/ha, adjuvant 0.2% v/v, 200 l/ha; leaf area killed; mean over two rates, six replicates, 6, 14 and 21 days", "protocol": "as §5, §6"}, "[12]": {"test_system": "Brachiaria platyphylla (BRAPP)", "experiment": "Glasshouse adjuvant test with mesotrione (Example 4)", "details": "mesotrione 60 or 120 g/ha, adjuvant 0.2% v/v, 200 l/ha; leaf area killed; mean over two rates, six replicates, 6, 14 and 21 days", "protocol": "as §5, §6"}, "[13]": {"test_system": "four weed species (AMARE, ABUTH, BRAPP, DIGSA)", "experiment": "Glasshouse adjuvant test with mesotrione (Example 4), mean across species", "details": "mesotrione 60 or 120 g/ha, adjuvant 0.2% v/v", "protocol": "as §5, §6"}},
  "data": [
    {"smiles": "CCCCCCCCCCCCc1ccc(C(=O)NCCOCCOCCOCCOCCOCCOCCOCCO)cc1", "note": "[Compound 2, 4-DODECYL-N-[2-(2-{2-[2-(2-{2-[2-(2-HYDROXY-ETHOXY)-ETHOXY]-ETHOXY}-ETHOXY)-ETHOXY]-ETHOXY}-ETHOXY)-ETHYL]-BENZAMIDE]", "values": [
      {"measurement": "Mean percentage kill ABUTH", "setting": "[1]", "result": 47.1, "unit": "%"},
      {"measurement": "Mean percentage kill CHEAL", "setting": "[2]", "result": 80, "unit": "%"},
      {"measurement": "Mean percentage kill DIGSA", "setting": "[3]", "result": 83.1, "unit": "%"},
      {"measurement": "Mean percentage kill BRAPP", "setting": "Brassica perenni (BRAPP)", "result": 86.4, "unit": "%"},
      {"measurement": "Mean percentage kill XANST", "setting": "[4]", "result": 68.8, "unit": "%"},
      {"measurement": "Mean percentage kill ABUTH", "setting": "[5]", "result": 90, "unit": "%"},
      {"measurement": "Mean percentage kill SETVI", "setting": "Setaria viridis (SETVI)", "result": 41.7, "unit": "%"},
      {"measurement": "Mean percentage kill CHEAL", "setting": "[6]", "result": 34.1, "unit": "%"},
      {"measurement": "Mean percentage kill, Mean (g/ha)", "setting": "[7]; nicosulfuron 30 or 60 g/ha, adjuvant 0.2% v/v, mean of the four weed species", "result": 73.9, "unit": "%"},
      {"measurement": "weed control compared to Turbocharge D", "setting": "[7]; nicosulfuron formulation with adjuvant, in each case (all four weed species)", "result": "superior weed control"},
      {"measurement": "Mean percentage kill, Mean across species", "setting": "[8]", "result": 58.6, "unit": "%"},
      {"measurement": "Mean percentage kill ABUTH", "setting": "[9]", "result": 73.3, "unit": "%"},
      {"measurement": "Mean percentage kill AMARE", "setting": "[10]", "result": 63.5, "unit": "%"},
      {"measurement": "Mean percentage kill DIGSA", "setting": "[11]", "result": 83.4, "unit": "%"},
      {"measurement": "Mean percentage kill BRAPP", "setting": "[12]", "result": 68.2, "unit": "%"},
      {"measurement": "Mean percentage kill, Mean across species", "setting": "[13]", "result": 72.1, "unit": "%"}
    ]}
  ]
}
